Source: patent US20250057883A1, “CONTROLLABLE STIMULATION OF GENETICALLY ENGINEERED LYMPHOCYTES FOR THE TREATMENT OF CANCER” (THE TRUSTEES OF THE UNIVERSITY OF PENNSYLVANIA, priority 2021, published 2025)
Entries after “also recorded” stand apart in the source; their conditions may differ.

What was measured:
T cells expressing TPOR = test: Stimulation of T cells expressing TPOR for 7 days, flow cytometry; type: cell-based, human; conditions: 0.1 μg/ml; for TPOR fraction after addition: enriched from 12.9%, FIG. 4 bottom panel
Protocol: (§1) FIG. 3: T cells transduced to express (i) the thrombopoietin receptor (TPOR) or (ii) the GCF receptor with a deletion at aa 715 (GCSFRd715) are active and can drive T cell proliferation via the non-canonical JAK2 pathway. T cells expressing GCSFRd715, TPOR, or the truncated NGFR as a control were stimulated for 7 days with IL-2/IL-7/IL-15 (all at 5 ng/ml; denoted as CK; positive control condition), 0.1 μg/ml recombinant thrombopoietin (TPO), 0.1 μg/ml TPO agonist eltrombopag (EP), or 0.1 μg/ml GCSF. Cell number (top) or percent transgenic cells (bottom) were quantified using flow cytometry at 7 days.
(§2) FIG. 4: Exemplary flow cytometry plots showing that exposure of transgenic cytokine receptor transduced cells to the cognate cytokine (i.e. GCSFRd715 to GCSF; TPOR to TPO or EP) leads to enrichment of CAR expressing cells at 7 days. Addition of GCSF enriched the GCSRFd715 transgenic cell fraction from 15.6% to 64.9% (top panel). Addition of TPO enriched the TPOR fraction from 12.9% to 82% and addition of EP enriched the TPOR fraction from 12.9% to 55.9% (bottom panel).
(§3) Healthy donor T cells were transduced to express (i) the thrombopoietin receptor (TPOR) or (ii) the GCF receptor with a deletion at aa 715 (GCSFRd715). T cells expressing GCSFRd715, TPOR, or the truncated NGFR as a control were stimulated for 7 days with IL-2/IL-7/IL-15 (all at 5 ng/ml; denoted as CK; positive control condition), 0.1 μg/ml recombinant thrombopoietin (TPO), 0.1 μg/ml TPO agonist eltrombopag (EP), or 0.1 μg/ml GCSF. Cell number (FIG. 3, top) or percent transgenic cells (FIG. 3, bottom) were quantified using flow cytometry at 7 days.

[1] = target: GCF receptor with a deletion at aa 715 (GCSFRd715) (UniProt Q99062); test: cell-based or functional assay
Human T cells = test: T cell expansion after MV pseudotyped lentiviral transduction with mbIL15; type: cell-based
Excerpt: FIGS. 1A-1E: Transgenic IL15 and IL15Ra-IL15 expression to enhances T cell proliferation. Human T cells were transduced with a measles virus (MV) pseudotyped lentiviral vector redirected specifically against human CD4, encoding the NGFR reporter alone (“no IL15 construct”), soluble IL15 along with the reporter, or membrane-bound IL15 along with the reporter. Transduction is shown in FIG. 1B, where the transgene is detected using a co-expressed reporter molecule (tNGFR). Quantification of soluble IL15 is depicted in FIG. 1C. No additional cytokine or stimulation signals were provided to the cells. Tcells express transgenic IL15 and IL15Ra-IL15. […].
IL15 is a homeostatic cytokine that is required for the maintenance of CD8+ memory Tcells and NK cells, and promotes anti-tumor activity. IL15 signals through the IL15 receptor which is composed of a specific alpha chain (IL15Rα or IL15Ra) along with the shared IL2Rb and common gamma chain. Previous work has shown that a membrane bound version of IL15 (mbIL15) can be created by fusing IL15 directly to IL15Rα via a flexible linker that promotes IL15 signaling to the expressing cell (PMID: 27849617, US 2016/0158285 A1) (SEQ ID NO: 1,see Table 1). Herein, it was shown that incorporating mbIL15 in the lentiviral transfer genome increases CAR-T cell numbers 10-fold in vitro (FIGS. 1A-1D). […]

[2] = target: thrombopoietin receptor (TPOR) (UniProt P40238); test: cell-based or functional assay
[3] = system: T cells transduced with reporter+TPO-R; test: Expansion of TPO-R transduced T cells in vitro; type: cell-based, human; conditions: transduced using the MV pseudotyped lentivector; FIG. 2D
Excerpt: FIGS. 2A-2D: Transgenic TPO-R enables controllable T cell expansion. T cells were transduced with the reporter NGFR, or with reporter+the thrombopoietin receptor (TPOR) and stimulated with eltrombopag, a specific small molecule agonist of TPOR, in vitro. FIG. 2A: Cell number is shown to increase only in the presence of the TPOR agonist. […] FIG. 2C: All cells that express the reporter (tNGFR) also express the TPO receptor.
Recombinant erythropoietin (Epo) and G-CSF are commercially approved for the treatment for anemia of chronic kidney disease, and for chemotherapy-related neutropenia, respectively. Clinical development of a recombinant thrombopoietin (TPO) was superseded by two TPO receptor (TPO-R, also known as c-Mpl) peptidomimetic drugs that are now approved for the treatment of immune thrombocytopenic purpura (romiplostim, and eltrombopag). […] Results of the TPO-R experiments were recapitulated herein (FIGS. 2A-2D). T cells were transduced with the reporter NGFR, or with reporter+TPO-R and stimulated with eltrombopag, a specific small molecule agonist of TPOR, in vitro. […] In FIG. 2C, it is shown that there is a 1:1 expression of the reporter NGFR with the TPO receptor after 12 days of eltrombopag treatment.

STAT3 and STAT5 = test: Phosphorylation of STAT3 and STAT5 in TPOR expressing T cells, flow cytometry; type: cell-based, human; conditions: 0.1 μg/ml, 24 hours
Protocol: (§4) FIG. 5: TPOR stimulation leads to activation of STAT3 and STAT5. Healthy donor Tcells expressing TPOR or untransduced control T cells were stimulated for 24 hours with 5 ng/ml IL-2/IL-7/IL-15 (CK), 0.1 μg/ml TPO or 0.1 μg/ml Eltrombopag (EP). Following stimulation cells were fixed and the phosphorylation of STAT3 and STAT5 quantified using flow cytometry.
as §4, with “TPOR” for “FIG. 5: TPOR”, “stimulation led” for “stimulation leads”, “and STAT5 (FIG. 5).” for “and STAT5.”, “donor T cells” for “donor Tcells”, “μg/ml TPO,” for “μg/ml TPO”

[4] = system: T cells expressing the truncated NGFR; test: Stimulation of negative control T cells (truncated NGFR) for 7 days, flow cytometry; type: cell-based, human; conditions: 0.1 μg/ml, FIG. 3 top
Protocol: as §1, §3

TPO-R = target: T1, TPO-R (Homo sapiens, UniProt P40238); conditions: CART cells transduced with TPO-R; cited from earlier work
T1 construct: host or cells: CAR T cells transduced with TPO-R by other groups
T1 sequence (P40238 26-635): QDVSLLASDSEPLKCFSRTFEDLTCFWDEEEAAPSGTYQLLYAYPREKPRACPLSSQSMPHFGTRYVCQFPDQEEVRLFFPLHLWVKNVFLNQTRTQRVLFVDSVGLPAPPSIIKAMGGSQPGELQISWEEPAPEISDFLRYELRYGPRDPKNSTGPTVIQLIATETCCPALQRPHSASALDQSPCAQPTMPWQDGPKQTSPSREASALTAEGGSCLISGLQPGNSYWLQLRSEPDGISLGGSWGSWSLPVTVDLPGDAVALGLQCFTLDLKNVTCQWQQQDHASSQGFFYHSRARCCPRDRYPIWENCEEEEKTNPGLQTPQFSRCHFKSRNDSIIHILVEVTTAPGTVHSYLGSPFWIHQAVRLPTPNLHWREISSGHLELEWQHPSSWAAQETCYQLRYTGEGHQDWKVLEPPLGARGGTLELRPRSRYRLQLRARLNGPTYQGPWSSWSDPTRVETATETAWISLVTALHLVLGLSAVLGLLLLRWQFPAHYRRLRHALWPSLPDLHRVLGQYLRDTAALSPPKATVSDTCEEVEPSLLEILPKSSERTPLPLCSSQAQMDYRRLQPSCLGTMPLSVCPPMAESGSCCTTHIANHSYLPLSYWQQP

[5] = target: T2, interleukin-6 receptor (IL-6R) (Homo sapiens, UniProt P08887); conditions: following CAR T-cell infusion; cited from earlier work
T2 construct: endogenous in cells; host or cells: subjects with cytokine release syndrome (in vivo)
T2 sequence (P08887 20-468): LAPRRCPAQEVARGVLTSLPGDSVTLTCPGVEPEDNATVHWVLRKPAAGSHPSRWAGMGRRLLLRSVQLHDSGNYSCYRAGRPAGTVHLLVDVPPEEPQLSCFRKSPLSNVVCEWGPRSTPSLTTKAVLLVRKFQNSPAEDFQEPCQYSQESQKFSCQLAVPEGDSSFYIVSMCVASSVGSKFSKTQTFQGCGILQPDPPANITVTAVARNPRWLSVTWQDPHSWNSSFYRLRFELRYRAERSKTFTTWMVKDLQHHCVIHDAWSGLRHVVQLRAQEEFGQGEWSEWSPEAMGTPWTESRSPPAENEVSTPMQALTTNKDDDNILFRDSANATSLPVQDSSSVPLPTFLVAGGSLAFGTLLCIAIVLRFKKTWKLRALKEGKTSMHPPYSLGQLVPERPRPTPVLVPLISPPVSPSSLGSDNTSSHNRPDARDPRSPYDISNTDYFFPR

[6] = system: T cells expressing GCSFRd715; test: Stimulation of T cells expressing GCSFRd715 for 7 days, flow cytometry; type: cell-based, human
Protocol: as §1, §2, §3

GCF receptor with a deletion at aa 715 (GCSFRd715), sequence (Q99062 25-715 limits assumed, stated change not applied): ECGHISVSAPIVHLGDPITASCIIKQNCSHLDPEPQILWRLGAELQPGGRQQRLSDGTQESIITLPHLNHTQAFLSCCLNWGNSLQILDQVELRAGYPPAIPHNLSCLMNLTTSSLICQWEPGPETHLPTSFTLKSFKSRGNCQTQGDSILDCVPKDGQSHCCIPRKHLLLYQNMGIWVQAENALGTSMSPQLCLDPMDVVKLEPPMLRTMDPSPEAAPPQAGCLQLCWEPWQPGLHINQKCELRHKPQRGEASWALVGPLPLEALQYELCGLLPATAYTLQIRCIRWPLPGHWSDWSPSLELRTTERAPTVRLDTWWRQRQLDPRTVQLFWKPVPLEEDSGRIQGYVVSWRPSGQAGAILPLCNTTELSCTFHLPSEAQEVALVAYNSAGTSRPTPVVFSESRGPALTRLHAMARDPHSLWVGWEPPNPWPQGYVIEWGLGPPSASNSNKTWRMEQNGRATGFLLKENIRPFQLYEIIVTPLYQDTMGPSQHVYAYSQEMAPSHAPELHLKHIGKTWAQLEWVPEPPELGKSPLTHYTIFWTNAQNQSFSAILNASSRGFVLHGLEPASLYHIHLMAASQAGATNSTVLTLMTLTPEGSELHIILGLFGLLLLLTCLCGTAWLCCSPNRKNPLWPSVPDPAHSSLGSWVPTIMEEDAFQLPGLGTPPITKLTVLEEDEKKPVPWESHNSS

With `CC1=NN(c2ccc(C)c(C)c2)C(=O)/C1=N\Nc1cccc(-c2cccc(C(=O)O)c2)c1O` [EP, eltrombopag, reference compound] the “TPOR fraction after addition” value (T cells expressing TPOR) was 55.9%.

Work on “Granulocyte Colony Stimulating Factor (G-CSF) (from UniProt P09919 31-204) (ligand)” yielded a transgenic cell fraction after 7 days (flow cytometry) [1] of 64.9%.

For “mbIL15: membrane bound version of IL15: IL15 fused directly to IL15Rα via a flexible linker (SEQ ID NO: 1)”, the “increase of CAR-T cell numbers” value (Human T cells; in vitro, mbIL15 in the lentiviral transfer genome) was 10 fold and the “cell number (expansion)” value (Human T cells; no additional cytokine or stimulation signals, FIG. 1D) was “superior expansion”.

With “recombinant thrombopoietin (TPO) (from UniProt P40225 22-353) (ligand)” the transgenic cell fraction after 7 days (flow cytometry) [2] was 82%.

For thrombopoietin [TPO], the “TPOR fraction after addition” value (T cells expressing TPOR) was 82%, the “response to stimulation (cell number)” value (T cells expressing TPOR; TPOR cells, FIG. 3 top) was “responded” and the “expansion of non-activated (resting) cells” value [3] was “led to expansion; also recorded: expand selectively”. The “phosphorylation of STAT3 and STAT5” value (STAT3 and STAT5) was “leads to STAT5 and STAT3 phosphorylation; also recorded: lead to the expected STAT5 and STAT3 phosphorylation”, the “response to stimulation (cell number)” value [4] was “did not respond” and the “proliferation and anti-tumor functions” value (TPO-R) was “superior proliferation and anti-tumor functions”.

In the case of “tocilizumab: humanized monoclonal antibody against the interleukin-6 receptor (IL-6R)”, the “reversal of CRS” value [5] is listed as “near-immediate reversal of CRS”.

B1: GCSF: Granulocyte Colony Stimulating Factor, cognate cytokine of GCSFRd715 (protein)
chain: TPLGPASSLPQSFLLKCLEQVRKIQGDGAALQEKLCATYKLCHPEELVLLGHSLGIPWAPLSSCPSQALQLAGCLSQLHSGLFLYQGLLQALEGISPELGPTLDTLQLDVADFATTIWQQMEELGMAPALQPTQGAMPAFASAFQRRAGGVLVASHLQSFLEVSYRVLRHLAQP
For B1, the “GCSFRd715 transgenic cell fraction after addition” value ([6]; 0.1 μg/ml, enriched from 15.6%, FIG. 4 top panel) was 64.9%, the “response to stimulation (cell number)” value ([6]; GCSFRd715 cells, 0.1 μg/ml, FIG. 3 top) was “responded” and the “relative enrichment of transgenic cells (percent transgenic cells)” value ([6]; GCSFRd715 cells, FIG. 3 bottom) was “Relative enrichment”. The “response to stimulation (cell number)” value [4] was “did not respond”.
